{
  "source": "paper PMC9525273",
  "about": "(Nature Communications, 2022)",
  "key": {"[1]": {"test_system": "isolated Dd2-Polδ-PfATP4^G358S P. falciparum trophozoites", "test": "[Na+]cyt measurement (SBFI), Na+ dysregulation", "assay_type": "cell-based, Plasmodium falciparum", "set-up": "Final [Na+]cyt reached: unit not given here", "method": "(§1) The ratio of the fluorescence intensity recorded at 340 nm and 380 nm (with an emission wavelength of 515 nm) was converted to [Na^+]cyt using a calibration procedure that entailed suspending parasites in solutions of varying [Na^+] containing ionophores. Fluorescence measurements and calibrations were performed at 37 °C, either with individual 1 mL suspensions using a PerkinElmer LS 50B fluorescence spectrometer (for resting [Na^+]cyt measurements for which the data are shown in Supplementary Fig. 7) or in 96-well plates using a Tecan Infinite M1000 PRO plate reader with i-control (version 1.12) software (all other [Na^+]cyt measurements)."}, "[2]": {"test_system": "isolated Dd2-Polδ P. falciparum trophozoites", "test": "[Na+]cyt measurement (SBFI), Na+ dysregulation", "assay_type": "cell-based, Plasmodium falciparum", "set-up": "Final [Na+]cyt reached: unit not given here", "conditions": "for Final [Na+]cyt reached: Dd2-Polδ; for IC50: Plasmodium falciparum", "method": "as §1"}, "[3]": {"test_system": "PfATP4-mutant P. falciparum lines and their parents", "conditions": "cited from earlier work"}},
  "note": "Values joined by “and” are separate entries in the source; they are usually repeats but may differ in a detail not shown here. Equal entries are not always repeated. Where two headings read alike, the source gives them in different places.",
  "data": [
    {"smiles": "N#Cc1cc(NC(=O)[C@H]2c3ccccc3C(=O)N(CC(F)(F)F)[C@@H]2c2cccnc2)ccc1F", "note": "[(+)-SJ733]", "values": [
      {"measurement": "Final [Na+]cyt reached", "setting": "[1]; Dd2-Polδ-PfATP4G358S, [(+)-SJ733] 9.8 nM, MEAN", "value": 28.4},
      {"measurement": "Final [Na+]cyt reached", "setting": "[1]; Dd2-Polδ-PfATP4G358S, [(+)-SJ733] 9.8 nM, single experiments", "value": "25.4 and 25.6 and 34.3"},
      {"measurement": "Final [Na+]cyt reached", "setting": "[1]; Dd2-Polδ-PfATP4G358S, [(+)-SJ733] 19.5 nM, MEAN", "value": 28.2},
      {"measurement": "Final [Na+]cyt reached", "setting": "[1]; Dd2-Polδ-PfATP4G358S, [(+)-SJ733] 19.5 nM, single experiments", "value": "24.8 and 26.3 and 33.5"},
      {"measurement": "Final [Na+]cyt reached", "setting": "[1]; Dd2-Polδ-PfATP4G358S, [(+)-SJ733] 39.1 nM, MEAN", "value": 28.7},
      {"measurement": "Final [Na+]cyt reached", "setting": "[1]; Dd2-Polδ-PfATP4G358S, [(+)-SJ733] 39.1 nM, single experiments", "value": "26.5 and 26.8 and 32.9"},
      {"measurement": "Final [Na+]cyt reached", "setting": "[1]; Dd2-Polδ-PfATP4G358S, [(+)-SJ733] 78.1 nM, MEAN", "value": 29.0},
      {"measurement": "Final [Na+]cyt reached", "setting": "[1]; Dd2-Polδ-PfATP4G358S, [(+)-SJ733] 78.1 nM, single experiments", "value": "26.6 and 27.0 and 33.4"},
      {"measurement": "Final [Na+]cyt reached", "setting": "[1]; Dd2-Polδ-PfATP4G358S, [(+)-SJ733] 156.3 nM, MEAN", "value": 28.6},
      {"measurement": "Final [Na+]cyt reached", "setting": "[1]; Dd2-Polδ-PfATP4G358S, [(+)-SJ733] 156.3 nM, single experiments", "value": "25.8 and 27.2 and 32.8"},
      {"measurement": "Final [Na+]cyt reached", "setting": "[1]; Dd2-Polδ-PfATP4G358S, [(+)-SJ733] 312.5 nM, MEAN", "value": 25.7},
      {"measurement": "Final [Na+]cyt reached", "setting": "[1]; Dd2-Polδ-PfATP4G358S, [(+)-SJ733] 312.5 nM, single experiments", "value": "25.5 and 26.1 and 32.5 and 18.8"},
      {"measurement": "Final [Na+]cyt reached", "setting": "[1]; Dd2-Polδ-PfATP4G358S, [(+)-SJ733] 625 nM, MEAN", "value": 26.8},
      {"measurement": "Final [Na+]cyt reached", "setting": "[1]; Dd2-Polδ-PfATP4G358S, [(+)-SJ733] 625 nM, single experiments", "value": "26.0 and 26.8 and 34.1 and 20.2"},
      {"measurement": "Final [Na+]cyt reached", "setting": "[1]; Dd2-Polδ-PfATP4G358S, [(+)-SJ733] 2500 nM, MEAN", "value": 28.2},
      {"measurement": "Final [Na+]cyt reached", "setting": "[1]; Dd2-Polδ-PfATP4G358S, [(+)-SJ733] 2500 nM, single experiments", "value": "27.1 and 27.5 and 36.9 and 21.3"},
      {"measurement": "Final [Na+]cyt reached", "setting": "[1]; Dd2-Polδ-PfATP4G358S, [(+)-SJ733] 5000 nM, MEAN", "value": 30.8},
      {"measurement": "Final [Na+]cyt reached", "setting": "[1]; Dd2-Polδ-PfATP4G358S, [(+)-SJ733] 5000 nM, single experiments", "value": "29.9 and 28.6 and 41.3 and 23.6"},
      {"measurement": "Final [Na+]cyt reached", "setting": "[1]; Dd2-Polδ-PfATP4G358S, [(+)-SJ733] 10000 nM, MEAN", "value": 38.0},
      {"measurement": "Final [Na+]cyt reached", "setting": "[1]; Dd2-Polδ-PfATP4G358S, [(+)-SJ733] 10000 nM, single experiments", "value": "34.4 and 33.8 and 55.9 and 28.0"},
      {"measurement": "Final [Na+]cyt reached", "setting": "[1]; Dd2-Polδ-PfATP4G358S, [(+)-SJ733] 20000 nM, MEAN", "value": 58.1},
      {"measurement": "Final [Na+]cyt reached", "setting": "[1]; Dd2-Polδ-PfATP4G358S, [(+)-SJ733] 40000 nM, MEAN", "value": 76.7},
      {"measurement": "Final [Na+]cyt reached", "setting": "[1]; Dd2-Polδ-PfATP4G358S, [(+)-SJ733] 40000 nM, single experiments", "value": "88.7 and 92.6 and 48.8"},
      {"measurement": "IC50", "setting": "[1]; Dd2-Polδ-PfATP4G358S, single experiments, source data of Table 1 (nM there), read-out: IC50 for Na+ dysregulation", "value": "> 20000", "unit": "nM"},
      {"measurement": "IC50", "setting": "[1]; Plasmodium falciparum, DD2, 1.5 h, pH 7.1, Dd2-Polδ-PfATP4G358S, ~90 min exposure, 37 °C, pH 7.1, read-out: IC50 for Na+ dysregulation", "value": "> 10000", "unit": "nM"},
      {"measurement": "IC50", "setting": "[1]; Plasmodium falciparum, DD2, Dd2-Polδ-PfATP4G358S, MEAN, source data of Table 1 (nM there), read-out: IC50 for Na+ dysregulation, MEAN", "value": "> 10000", "unit": "nM"},
      {"measurement": "IC50", "setting": "[1]; Plasmodium falciparum, DD2, Dd2-Polδ-PfATP4G358S, single experiments, source data of Table 1 (nM there), read-out: IC50 for Na+ dysregulation", "value": "> 10000", "unit": "nM"},
      {"measurement": "Final [Na+]cyt reached", "setting": "[2]; [(+)-SJ733] 9.8 nM, MEAN", "value": 24.0},
      {"measurement": "Final [Na+]cyt reached", "setting": "[2]; [(+)-SJ733] 19.5 nM, MEAN", "value": 33.0},
      {"measurement": "Final [Na+]cyt reached", "setting": "[2]; [(+)-SJ733] 39.1 nM, MEAN", "value": 53.8},
      {"measurement": "Final [Na+]cyt reached", "setting": "[2]; [(+)-SJ733] 78.1 nM, MEAN", "value": 78.4},
      {"measurement": "Final [Na+]cyt reached", "setting": "[2]; [(+)-SJ733] 156.3 nM, MEAN", "value": 97.5},
      {"measurement": "Final [Na+]cyt reached", "setting": "[2]; [(+)-SJ733] 156.3 nM, single experiments", "value": "122.9 and 77.5 and 89.5 and 99.9"},
      {"measurement": "Final [Na+]cyt reached", "setting": "[2]; [(+)-SJ733] 312.5 nM, MEAN", "value": 102.1},
      {"measurement": "Final [Na+]cyt reached", "setting": "[2]; [(+)-SJ733] 312.5 nM, single experiments", "value": "131.1 and 85.2 and 96.4 and 95.7"},
      {"measurement": "Final [Na+]cyt reached", "setting": "[2]; [(+)-SJ733] 625 nM, MEAN", "value": 112.5},
      {"measurement": "Final [Na+]cyt reached", "setting": "[2]; [(+)-SJ733] 625 nM, single experiments", "value": "132.7 and 104.6 and 109.2 and 103.6"},
      {"measurement": "Final [Na+]cyt reached", "setting": "[2]; [(+)-SJ733] 2500 nM, MEAN", "value": 112.4},
      {"measurement": "Final [Na+]cyt reached", "setting": "[2]; [(+)-SJ733] 2500 nM, single experiments", "value": "123.5 and 114.1 and 104.4 and 107.6"},
      {"measurement": "Final [Na+]cyt reached", "setting": "[2]; [(+)-SJ733] 5000 nM, MEAN", "value": 111.0},
      {"measurement": "Final [Na+]cyt reached", "setting": "[2]; [(+)-SJ733] 5000 nM, single experiments", "value": "138.3 and 95.8 and 115.2 and 94.7"},
      {"measurement": "Final [Na+]cyt reached", "setting": "[2]; [(+)-SJ733] 10000 nM, MEAN", "value": 115.2},
      {"measurement": "Final [Na+]cyt reached", "setting": "[2]; [(+)-SJ733] 10000 nM, single experiments", "value": "139.1 and 108.5 and 119.1 and 94.2"},
      {"measurement": "Final [Na+]cyt reached", "setting": "[2]; [(+)-SJ733] 20000 nM, MEAN", "value": 108.1},
      {"measurement": "Final [Na+]cyt reached", "setting": "[2]; [(+)-SJ733] 20000 nM, single experiments", "value": "139.5 and 98.0 and 111.1 and 84.0"},
      {"measurement": "IC50", "setting": "[2]; DD2, 1.5 h, pH 7.1, Dd2-Polδ, ~90 min exposure, 37 °C, pH 7.1, mean ± SEM, read-out: IC50 for Na+ dysregulation", "value": "55 ± 15", "unit": "nM"},
      {"measurement": "IC50", "setting": "[2]; DD2, Dd2-Polδ, MEAN, source data of Table 1 (nM there), read-out: IC50 for Na+ dysregulation, MEAN", "value": 55, "unit": "nM"},
      {"measurement": "difference in potency between the drugs", "setting": "[2]; vs cipargamin, [Na+]cyt assays (P. falciparum, T. gondii) and P. falciparum proliferation assays", "value": "> 6", "unit": "fold"},
      {"measurement": "IC50", "setting": "[3]; genetically engineered parasites bearing L350H in PfATP4", "value": 3.5, "unit": "µM"},
      {"measurement": "IC50", "setting": "[3]; genetically engineered parasites bearing P412T in PfATP4", "value": 10, "unit": "µM"},
      {"measurement": "IC50", "setting": "[3]; parental wild-type parasites", "value": 0.075, "unit": "µM"}
    ]}
  ]
}
